Results reported in ChEMBL document CHEMBL1201862, “PubChem BioAssay data set” (2004).
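These data come from cells grown in 96-well plates and exposed to compound for 48 hours at five concentrations. Here, GI50 denotes the concentration required for 50% inhibition of growth.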 Calls of active or inactive are those of the source. Rule as the data show it: active = GI50 up to about 1.1 µM and inactive = higher.

Key:
Assay in all cases: DTP human tumour cell line panel, 48 h
SW-620 = tested on: SW-620
MOLT-4 = tested on: MOLT-4
HOP-92 = tested on: HOP-92
SF-539 = tested on: SF-539
DU-145 = tested on: DU-145
MCF7 = tested on: MCF7
MDA-MB-231 = tested on: MDA-MB-231
SF-295 = tested on: SF-295
UO-31 = tested on: UO-31
SF-268 = tested on: SF-268
NCI-H522 = tested on: NCI-H522
NCI-H460 = tested on: NCI-H460
Malme-3M = tested on: Malme-3M
CCRF-CEM = tested on: CCRF-CEM
U-251 = tested on: U-251
SN12C = tested on: SN12C
SR = tested on: SR
HL-60 = tested on: HL-60
SNB-75 = tested on: SNB-75

Measured: GI50

CN1CCc2[nH]nc(-c3n[nH]c4c3CN(C)CC4)c2C1
inactive: SW-620 > 100 µM | MOLT-4 > 100 µM | HOP-92 > 100 µM | SF-539 > 100 µM | DU-145 > 100 µM | MCF7 > 100 µM | MDA-MB-231 > 100 µM | SF-295 > 100 µM | UO-31 > 100 µM | SF-268 > 100 µM | NCI-H522 > 100 µM | NCI-H460 > 100 µM | Malme-3M > 100 µM | CCRF-CEM 72.8 µM | U-251 > 100 µM | SN12C > 100 µM | SR > 100 µM

NC(=S)N/N=C(/C(=O)Nc1nc2ccc([N+](=O)[O-])cc2s1)C1C(=O)NC(=S)NC1=O
inactive: SW-620 > 100 µM | MOLT-4 > 100 µM | HOP-92 77.6 µM | SF-539 49 µM | DU-145 > 100 µM | MCF7 > 100 µM | HL-60 > 100 µM | MDA-MB-231 > 100 µM | SF-295 42.2 µM | UO-31 63.8 µM | SF-268 88.9 µM | NCI-H460 56.1 µM | CCRF-CEM > 100 µM | U-251 > 100 µM | SN12C > 100 µM | SR > 100 µM

C=C(C)C1Cc2c(cc(O)c3c(=O)c4c(oc23)C(O)Oc2cc(OC)c(OC)cc2-4)O1 (centres undefined)
inactive: SW-620 > 10 µM | MOLT-4 > 10 µM | HOP-92 > 10 µM | SF-539 > 10 µM | DU-145 > 10 µM | MCF7 > 10 µM | HL-60 > 10 µM | MDA-MB-231 > 10 µM | SF-295 > 10 µM | UO-31 > 10 µM | SF-268 > 10 µM | NCI-H460 > 10 µM | Malme-3M > 10 µM | CCRF-CEM > 10 µM | U-251 > 10 µM | SN12C > 10 µM | SR > 10 µM

CC(SC(=S)N(C)C)C(=O)Nc1nnc(-c2ccc(Cl)cc2)o1 (centres undefined)
inactive: SW-620 34.7 µM | MOLT-4 3.24 µM | HOP-92 > 100 µM | SF-539 59.7 µM | DU-145 59.8 µM | MCF7 26.7 µM | MDA-MB-231 44.6 µM | UO-31 20 µM | SF-268 29 µM | NCI-H460 35.8 µM | Malme-3M 90.2 µM | SNB-75 41.5 µM | U-251 31 µM | SN12C 33.7 µM | SR 4.33 µM

COc1ccc2c(c1)CCN1CCc3cc(OC)c(OC)cc3CC21 (centres undefined)
inactive: SW-620 80.5 µM | MOLT-4 39.4 µM | HOP-92 89.3 µM | SF-539 76.4 µM | DU-145 > 100 µM | MCF7 90.4 µM | MDA-MB-231 > 100 µM | SF-295 > 100 µM | UO-31 31.8 µM | SF-268 28.9 µM | NCI-H522 > 10 µM | CCRF-CEM 55 µM | SNB-75 66.7 µM | U-251 72.3 µM | SN12C > 100 µM | SR 39.8 µM

CC(=O)OC1CCC2(C)C(=CCC3C2CCC2(C)C(C(C)C(=O)O)CCC32)C1 (centres undefined)
inactive: SW-620 > 100 µM | MOLT-4 > 100 µM | HOP-92 > 100 µM | SF-539 > 100 µM | DU-145 > 100 µM | MCF7 51.1 µM | MDA-MB-231 > 100 µM | SF-295 > 100 µM | UO-31 92 µM | SF-268 > 100 µM | NCI-H522 58.6 µM | NCI-H460 63 µM | Malme-3M > 100 µM | CCRF-CEM > 100 µM | SNB-75 > 100 µM | U-251 88.9 µM | SN12C > 100 µM | SR > 100 µM

CC(=O)Nc1ccc(OC2=CCN(C)CC2)cc1
inactive: SW-620 > 100 µM | MOLT-4 > 100 µM | DU-145 > 100 µM | MCF7 > 100 µM | HL-60 > 100 µM | MDA-MB-231 > 100 µM | SF-295 > 100 µM | UO-31 > 100 µM | SF-268 > 100 µM | NCI-H460 > 100 µM | Malme-3M > 100 µM | CCRF-CEM > 100 µM | SNB-75 > 100 µM | U-251 > 100 µM | SN12C > 100 µM | SR > 100 µM

Cc1nn(-c2ccccc2)c(C)c1/C=N/NC(=O)c1sc(=S)n(-c2ccc(Cl)cc2)c1N
inactive: SW-620 > 100 µM | MOLT-4 8.2 µM | SF-539 3.64 µM | DU-145 > 100 µM | MCF7 18 µM | HL-60 8.17 µM | MDA-MB-231 5.02 µM | SF-295 2.71 µM | UO-31 4.33 µM | SF-268 9.57 µM | NCI-H460 4.83 µM | Malme-3M 17.5 µM | CCRF-CEM 6.01 µM | SNB-75 1.48 µM | U-251 6 µM | SN12C 12.2 µM | SR 3.73 µM

Cc1cccc(NC(=S)Nc2ccc([N+](=O)[O-])cc2)n1
inactive: SW-620 > 100 µM | MOLT-4 > 100 µM | HOP-92 > 100 µM | SF-539 > 100 µM | DU-145 > 100 µM | MCF7 > 100 µM | HL-60 > 100 µM | MDA-MB-231 > 100 µM | SF-295 > 100 µM | UO-31 > 100 µM | SF-268 > 100 µM | NCI-H460 > 100 µM | CCRF-CEM > 100 µM | SNB-75 > 100 µM | U-251 > 100 µM | SR > 100 µM

O=C(/C=C/c1ccc(-c2ccccc2[N+](=O)[O-])o1)NCc1ccc(C(=O)NCCc2ccccc2)cc1
inactive: SW-620 > 100 µM | MOLT-4 > 100 µM | HOP-92 > 100 µM | SF-539 > 100 µM | DU-145 > 100 µM | MCF7 > 100 µM | MDA-MB-231 > 100 µM | SF-295 > 100 µM | UO-31 > 100 µM | SF-268 > 100 µM | NCI-H522 > 100 µM | NCI-H460 > 100 µM | Malme-3M > 100 µM | SNB-75 > 100 µM | U-251 > 100 µM | SN12C > 100 µM | SR 5.62 µM

CC(C)NC(=O)OCCN=C1c2ccccc2CCc2ccccc21
inactive: SW-620 28.3 µM | MOLT-4 14.8 µM | HOP-92 24.5 µM | SF-539 22.3 µM | DU-145 25.5 µM | MCF7 22.6 µM | HL-60 19.2 µM | MDA-MB-231 25.2 µM | SF-295 14.7 µM | UO-31 23.1 µM | SF-268 26.2 µM | NCI-H460 28.2 µM | Malme-3M 15.5 µM | CCRF-CEM 19.6 µM | SNB-75 24.3 µM | U-251 23.8 µM | SN12C 18.8 µM | SR 18.1 µM

Cc1cc(C#N)c(Nc2ccccc2[N+](=O)[O-])s1
inactive: SW-620 25.5 µM | MOLT-4 55.7 µM | HOP-92 57.9 µM | SF-539 27.7 µM | DU-145 17.7 µM | MCF7 32.5 µM | MDA-MB-231 24.7 µM | SF-295 24.8 µM | UO-31 39.7 µM | SF-268 51.5 µM | NCI-H522 19.8 µM | NCI-H460 36.6 µM | CCRF-CEM 39.3 µM | SNB-75 15.4 µM | U-251 20.3 µM | SN12C 19.2 µM | SR 40.2 µM

COC(=O)C1=COC(OC2OC(CO)C(O)C(O)C2O)C2C3CN4CCc5c([nH]c6ccccc56)C4(CC12)O3 (centres undefined)
inactive: SW-620 > 100 µM | MOLT-4 > 100 µM | SF-539 > 100 µM | DU-145 > 100 µM | MCF7 > 100 µM | HL-60 > 100 µM | MDA-MB-231 > 100 µM | SF-295 > 100 µM | UO-31 > 100 µM | SF-268 31.9 µM | NCI-H460 > 100 µM | Malme-3M > 100 µM | SNB-75 > 100 µM | U-251 > 100 µM | SN12C > 100 µM | SR > 100 µM

O=C1c2cc3c(cc2NC(c2ccccc2F)C1O)OCO3 (centres undefined)
inactive: SW-620 5.19 µM | MOLT-4 19.5 µM | HOP-92 33.6 µM | SF-539 12.2 µM | DU-145 35 µM | MCF7 5.27 µM | MDA-MB-231 20.2 µM | SF-295 12.1 µM | UO-31 27.7 µM | SF-268 19.4 µM | NCI-H522 10.5 µM | NCI-H460 9.46 µM | Malme-3M 9.86 µM | CCRF-CEM 14 µM | SNB-75 16.3 µM | U-251 14.9 µM | SN12C 22.2 µM | SR 3.74 µM

CC1=C(C)C(=O)C(C2=CC(=O)C=CC2=O)=C(C2=CC(=O)C=CC2=O)C1=O
inactive: SW-620 28.4 µM | MOLT-4 15.5 µM | HOP-92 36.4 µM | SF-539 27.3 µM | DU-145 > 100 µM | MCF7 26.4 µM | HL-60 14.9 µM | MDA-MB-231 18.4 µM | SF-295 > 96.2 µM | UO-31 41.7 µM | SF-268 > 74.6 µM | NCI-H522 21.2 µM | NCI-H460 > 100 µM | Malme-3M 66.1 µM | CCRF-CEM 14.1 µM | SNB-75 > 100 µM | U-251 32.7 µM | SN12C 31 µM

CN(C)/C=[N+]1/[C@@H](Cc2ccccc2)C(=O)O[B-]1(F)c1ccccc1 (some centres undefined)
inactive: SW-620 > 100 µM | MOLT-4 > 100 µM | HOP-92 > 100 µM | DU-145 > 100 µM | MCF7 > 100 µM | HL-60 > 100 µM | MDA-MB-231 > 100 µM | SF-295 > 100 µM | UO-31 > 100 µM | SF-268 > 100 µM | NCI-H460 > 100 µM | Malme-3M > 100 µM | CCRF-CEM > 100 µM | SNB-75 > 100 µM | U-251 > 100 µM | SN12C > 100 µM | SR > 100 µM
